Measured values reported in US20060094071A1 (priority 2002, published 2006).
Where no end group is shown, it is not given here. The star is where a group is joined. Propionyl = CCC(=O)*

Assays:
PrP^Sc [1] = target: T1, PrP^Sc (Bos taurus, UniProt P10279); assay type: binding, cattle
PrP^Sc [2] = target: T1, PrP^Sc; assay type: binding, cattle; conditions: pH 3
PrP^Sc [3] = test system: PrP^Sc

Propionyl-DArg-DArg-DA1a-DPhe-DPhe-DVal-amide [Peptide 7]
PrP^Sc binding efficiency (relative) (PrP^Sc [1]): 76.5%

Gly-Val-Val-Ile-Ala [Peptide 6]
PrP^Sc binding efficiency (relative) (PrP^Sc [1]): 64.5%

Propionyl-RIIGL [Peptide 5]
PrP^Sc binding efficiency (relative) (PrP^Sc [1]): 58.1%

Propionyl-IIGL [Peptide 4]
PrP^Sc binding efficiency (relative) (PrP^Sc [1]): 55.1%

Arg-Val-Val-Ile-Ala [Peptide 1]
PrP^Sc binding efficiency (relative) (PrP^Sc [1]): 54.7%

Lys-Leu-Val-Phe-Phe [Peptide 2]
PrP^Sc binding efficiency (relative) (PrP^Sc [1]): 100.0%
Elution efficiency (PrP^Sc [2]): remained almost completely bound
Extinction at 450 nm, BSE-positive versus BSE-negative animals (PrP^Sc [3]): significantly (t-test) raised

Leu-Pro-Phe-Phe-Asp (LPFFD; beta-sheet binding peptide) [Peptide 3]
PrP^Sc binding efficiency (relative) (PrP^Sc [1]): 46.6%
